Measured values as given in ChEMBL document CHEMBL1201862, “PubChem BioAssay data set” (2004).
Active and inactive are the calls of the source.

How the values were obtained:
[1] = CRF-BP/CRF-R2 complex antagonists, dose response, cell-based, uHTS hits, 384-well (AID 651639); assay type: functional, Homo sapiens; conditions: read-out: IC50_Mean
[2] = molecular target: T1, Corticotropin-releasing factor receptor 2/Corticotropin-releasing factor-binding protein (Homo sapiens, UniProt P24387+Q13324); experiment: Dose Response confirmation of uHTS hits for small molecule antagonists of the CRF-binding protein and CRF-R2 receptor complex.; assay type: functional; conditions: read-out: IC50_Mean
T1 sequence (Q13324 whole entry): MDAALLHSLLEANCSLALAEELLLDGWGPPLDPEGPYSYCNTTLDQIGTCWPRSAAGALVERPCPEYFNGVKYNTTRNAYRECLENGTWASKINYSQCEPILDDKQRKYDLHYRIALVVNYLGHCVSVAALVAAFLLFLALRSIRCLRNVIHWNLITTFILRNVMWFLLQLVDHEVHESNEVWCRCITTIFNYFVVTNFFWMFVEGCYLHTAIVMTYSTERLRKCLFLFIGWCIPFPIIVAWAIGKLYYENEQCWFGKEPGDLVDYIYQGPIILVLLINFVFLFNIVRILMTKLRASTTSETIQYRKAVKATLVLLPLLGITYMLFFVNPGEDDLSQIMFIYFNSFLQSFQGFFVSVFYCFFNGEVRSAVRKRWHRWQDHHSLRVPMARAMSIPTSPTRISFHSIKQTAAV
T1 sequence (P24387 whole entry): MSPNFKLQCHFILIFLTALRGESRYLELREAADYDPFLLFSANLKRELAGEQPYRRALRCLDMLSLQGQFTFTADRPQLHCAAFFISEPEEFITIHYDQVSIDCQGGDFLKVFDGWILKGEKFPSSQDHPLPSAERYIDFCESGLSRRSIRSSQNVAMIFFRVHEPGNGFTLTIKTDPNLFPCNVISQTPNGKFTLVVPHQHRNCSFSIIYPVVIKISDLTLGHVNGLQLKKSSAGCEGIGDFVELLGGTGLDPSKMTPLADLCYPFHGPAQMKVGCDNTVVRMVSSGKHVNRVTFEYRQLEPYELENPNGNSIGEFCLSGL

[3] = molecular target: T1, Corticotropin-releasing factor receptor 2/Corticotropin-releasing factor-binding protein; experiment: activators of CRF receptor 2 with binding protein – uHTS hits, confirmation (AID 602473); assay type: functional; conditions: read-out: EC50_Mean
[4] = cytotoxicity toward NIH3T3 fibroblasts, dose response, counter-screen, cell-based, ATP luminescence, mouse fibroblasts (AID 2010); assay type: functional;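 further: cells exposed to compound for about 90 hours before reading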
[5] = cells
[6] = inhibitors of intracellular T. cruzi replication, confirmation, NIH3T3 host cells, beta-gal luminescence (AID 2044); assay type: functional, cell-based;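 further: intracellular parasites grown in NIH/3T3 mouse fibroblasts as host cells; luminescent beta-galactosidase reporter signal from transgenic T. cruzi replicating inside host cells; inhibitors lower the luminescence signal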
[7] = molecular target: T2, Sentrin-specific protease 8 (Homo sapiens, UniProt Q96LD8); assay type: functional
T2 sequence (Q96LD8 whole entry): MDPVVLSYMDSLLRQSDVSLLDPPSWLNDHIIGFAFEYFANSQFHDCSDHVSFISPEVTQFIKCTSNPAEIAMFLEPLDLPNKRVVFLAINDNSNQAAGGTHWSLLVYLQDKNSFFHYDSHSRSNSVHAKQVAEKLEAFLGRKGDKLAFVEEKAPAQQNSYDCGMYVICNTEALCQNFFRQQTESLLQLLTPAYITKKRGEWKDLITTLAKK

[8] = molecular target: T2, Sentrin-specific protease 8; assay type: functional; remark: listed apart in the source
[9] = system: INS1; experiment: beta cell apoptosis inhibitors, cytokine rescue, dose response, luminescence, retest (AID 449756); assay type: functional, cell-based; conditions: Rattus norvegicus;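 further: cell death triggered by IL-1 beta plus TNF-alpha plus IFN-gamma mixture; protective hits raise ATP signal compared with cytokine alone wells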
[10] = molecular target: Cytochrome P450 2C9 (Homo sapiens, UniProt P11712)
[11] = molecular target: Cytochrome P450 3A4 (Homo sapiens, UniProt P08684);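 further: CYP3A4 tested as one member of a cytochrome P450 panel screen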
[12] = molecular target: Photoreceptor-specific nuclear receptor (Homo sapiens, UniProt Q9Y5X4); assay type: functional, cell-based;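 further: CHO-S cells with Gal4-NCOR and VP16-NR2E3 two-hybrid luciferase reporter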
[13] = molecular target: Estrogen receptor beta (Homo sapiens, UniProt Q92731);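 further: recombinant ER-beta bound to coactivator SRC1 peptide in presence of estradiol agonist; inhibitors block coactivator peptide binding and lower the FRET signal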
[14] = molecular target: T3, Protein Tat (Human immunodeficiency virus type 1 group M subtype B (isolate HXB2)(HIV-1), UniProt P04608); assay type: functional;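 further: tat binding to TAR RNA read out by fluorescence polarization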
T3 sequence (P04608 whole entry): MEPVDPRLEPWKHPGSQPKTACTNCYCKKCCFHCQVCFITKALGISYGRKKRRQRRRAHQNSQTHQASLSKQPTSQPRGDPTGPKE

[15] = molecular target: T4, DNA repair and recombination protein RAD54-like (Homo sapiens, UniProt Q92698); experiment: inhibitors of human RAD54 branch migration, confirmation, biochemical, fluorescence, cherry-picked samples, dose series (AID 651657); assay type: functional
T4 sequence (Q92698 whole entry): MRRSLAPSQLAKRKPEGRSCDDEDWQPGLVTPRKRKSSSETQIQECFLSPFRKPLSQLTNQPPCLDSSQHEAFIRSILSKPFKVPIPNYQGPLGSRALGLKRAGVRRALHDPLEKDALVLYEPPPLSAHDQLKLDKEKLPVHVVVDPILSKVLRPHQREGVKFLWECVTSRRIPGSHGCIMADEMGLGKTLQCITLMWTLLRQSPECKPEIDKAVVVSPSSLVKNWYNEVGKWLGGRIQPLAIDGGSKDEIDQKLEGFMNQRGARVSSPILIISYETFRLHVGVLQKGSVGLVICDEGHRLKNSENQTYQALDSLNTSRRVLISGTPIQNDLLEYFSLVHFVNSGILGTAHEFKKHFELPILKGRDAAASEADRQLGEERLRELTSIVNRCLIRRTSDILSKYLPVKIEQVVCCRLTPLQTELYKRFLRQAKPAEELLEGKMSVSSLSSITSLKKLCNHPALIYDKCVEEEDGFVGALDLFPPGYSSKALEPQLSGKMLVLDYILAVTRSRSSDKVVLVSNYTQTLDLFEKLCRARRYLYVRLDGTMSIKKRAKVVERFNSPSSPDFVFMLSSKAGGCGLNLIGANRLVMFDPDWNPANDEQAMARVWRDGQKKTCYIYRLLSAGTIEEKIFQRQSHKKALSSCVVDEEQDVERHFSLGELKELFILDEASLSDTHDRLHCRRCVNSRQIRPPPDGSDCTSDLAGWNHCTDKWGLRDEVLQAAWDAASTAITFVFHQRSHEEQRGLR

[16] = cells; assay type: functional, cell-based
[17] = cells; assay type: functional, cell-based; remark: listed apart in the source
[18] = molecular target: Kallikrein-7 (Homo sapiens, UniProt P49862); experiment: Fluorescence Intensity-based biochemical primary high throughput dose response assay to identify activators of kallikrein-7 (K7) zymogen.
Kallikrein-7, sequence (P49862 whole entry): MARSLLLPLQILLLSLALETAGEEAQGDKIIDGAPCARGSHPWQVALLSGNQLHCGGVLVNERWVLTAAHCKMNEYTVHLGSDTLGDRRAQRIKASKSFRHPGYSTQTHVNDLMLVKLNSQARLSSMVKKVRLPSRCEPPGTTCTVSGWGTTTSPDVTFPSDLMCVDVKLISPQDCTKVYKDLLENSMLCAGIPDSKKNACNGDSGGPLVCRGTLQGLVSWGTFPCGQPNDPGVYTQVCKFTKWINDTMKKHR

Cytochrome P450 2C9, sequence (P11712 whole entry): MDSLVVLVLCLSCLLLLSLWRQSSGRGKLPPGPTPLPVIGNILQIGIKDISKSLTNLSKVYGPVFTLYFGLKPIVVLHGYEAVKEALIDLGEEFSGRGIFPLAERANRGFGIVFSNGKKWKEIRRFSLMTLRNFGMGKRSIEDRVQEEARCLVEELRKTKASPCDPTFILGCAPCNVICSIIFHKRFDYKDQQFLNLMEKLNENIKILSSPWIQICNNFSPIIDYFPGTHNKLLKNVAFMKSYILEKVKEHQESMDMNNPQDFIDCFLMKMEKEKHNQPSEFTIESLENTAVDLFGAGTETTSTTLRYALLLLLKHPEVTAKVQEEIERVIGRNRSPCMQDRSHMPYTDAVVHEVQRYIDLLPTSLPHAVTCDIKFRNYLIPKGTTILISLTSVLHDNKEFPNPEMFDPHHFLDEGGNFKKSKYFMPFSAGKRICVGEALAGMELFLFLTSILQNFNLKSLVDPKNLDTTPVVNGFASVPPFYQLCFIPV
Cytochrome P450 3A4, sequence (P08684 whole entry, the tested form may be a part): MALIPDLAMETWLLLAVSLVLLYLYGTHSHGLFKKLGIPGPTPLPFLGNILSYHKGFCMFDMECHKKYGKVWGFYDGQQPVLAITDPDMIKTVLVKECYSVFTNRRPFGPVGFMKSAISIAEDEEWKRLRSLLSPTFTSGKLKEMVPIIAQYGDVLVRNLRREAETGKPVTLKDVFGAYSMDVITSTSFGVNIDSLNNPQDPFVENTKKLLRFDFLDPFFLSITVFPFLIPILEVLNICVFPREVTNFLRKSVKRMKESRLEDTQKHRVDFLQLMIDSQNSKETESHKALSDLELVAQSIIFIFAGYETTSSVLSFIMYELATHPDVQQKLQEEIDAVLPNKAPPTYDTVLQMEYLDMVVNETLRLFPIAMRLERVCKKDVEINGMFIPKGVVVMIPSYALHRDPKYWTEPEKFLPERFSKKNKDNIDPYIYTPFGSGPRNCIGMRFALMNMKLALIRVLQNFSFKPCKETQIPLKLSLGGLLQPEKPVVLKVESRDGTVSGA
Estrogen receptor beta, sequence (Q92731 whole entry): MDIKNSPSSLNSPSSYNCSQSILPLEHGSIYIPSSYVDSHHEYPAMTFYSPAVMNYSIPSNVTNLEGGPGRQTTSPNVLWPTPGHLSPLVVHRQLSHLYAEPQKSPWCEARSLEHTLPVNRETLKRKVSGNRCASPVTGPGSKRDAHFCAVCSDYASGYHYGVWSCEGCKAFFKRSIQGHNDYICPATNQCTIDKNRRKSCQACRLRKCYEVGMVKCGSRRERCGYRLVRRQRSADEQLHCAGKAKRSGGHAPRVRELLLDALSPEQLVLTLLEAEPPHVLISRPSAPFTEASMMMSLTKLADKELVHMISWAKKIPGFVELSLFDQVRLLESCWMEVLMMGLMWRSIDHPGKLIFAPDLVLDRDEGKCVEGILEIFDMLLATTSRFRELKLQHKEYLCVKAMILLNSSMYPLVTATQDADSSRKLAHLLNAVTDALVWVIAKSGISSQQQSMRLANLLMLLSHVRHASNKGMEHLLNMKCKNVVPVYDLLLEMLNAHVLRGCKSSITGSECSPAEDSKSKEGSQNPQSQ
Photoreceptor-specific nuclear receptor, sequence (Q9Y5X4 whole entry, the tested form may be a part): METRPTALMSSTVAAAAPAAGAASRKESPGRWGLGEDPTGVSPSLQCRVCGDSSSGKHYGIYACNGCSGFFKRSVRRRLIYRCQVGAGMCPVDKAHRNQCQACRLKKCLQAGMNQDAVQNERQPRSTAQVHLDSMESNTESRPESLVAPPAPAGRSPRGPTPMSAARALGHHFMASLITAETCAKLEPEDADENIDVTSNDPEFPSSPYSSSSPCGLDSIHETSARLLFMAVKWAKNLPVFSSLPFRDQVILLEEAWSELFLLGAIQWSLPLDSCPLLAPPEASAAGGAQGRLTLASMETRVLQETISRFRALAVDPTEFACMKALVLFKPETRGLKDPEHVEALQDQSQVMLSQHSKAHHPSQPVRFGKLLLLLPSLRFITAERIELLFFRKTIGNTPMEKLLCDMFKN

With `O=c1c2ccccc2n(Cc2ccc(F)cc2)c(=O)n1C1CCCC1` the IC50 [1] was > 20 µM (inactive), the IC50 [2] was 3.48 µM (active) and the EC50 [3] was > 53 µM (inactive).

For `CCOC(=O)C1CCCN(Cc2ccc(-c3ccccc3)cc2)C1` (stereo not drawn), the EC50 [4] was > 60 µM (not active), the EC50 [5] was 0.429 µM (active) and the EC50 [6] was < 0.1 µM (active).

With `CC1(OC(=O)C2CCCC2)C(=O)C=C2C=C3CCCCN3C=C2C1=O` (stereo not drawn) the IC50 [7] was 4.28 µM (active) and the IC50 [8] was 3.82 µM (active).

With `O=c1cc(N2CCN(c3cccc(Cl)c3)CC2)[nH]c(=O)n1C1CCCCC1` the AC50 [9] was 1.15 µM (active), the AC50 [10] was 3.16 µM (inconclusive) and the AC50 [11] was 3.55 µM (inconclusive). The IC50 [12] was 0.0374 µM (active).

For `CCc1nnc(NS(=O)(=O)c2ccc(NC(=S)NC(=O)/C=C/c3ccccc3)cc2)s1`, the IC50 [1] was > 20 µM (inactive), the IC50 [2] was < 0.368 µM (active) and the EC50 [3] was > 53 µM (inactive).

With `CC1(OC(=O)c2ccc(Cl)nc2)C(=O)C=C2C=C3CCCN3C=C2C1=O` (stereo not drawn) the IC50 [7] was 8.11 µM (active) and the IC50 [8] was 5.33 µM (active).

With `Cc1cc(S(=O)(=O)N(Cc2ccc(F)cc2)CC2CCCO2)ccc1-n1cnnn1` (stereo not drawn) the IC50 [13] was > 50 µM (not active).

For `O=C(CSc1nnc(-c2cccnc2)n1-c1ccccc1)Nc1ccc2c(c1)OCO2`, the IC50 [13] was > 50 µM (not active).

For `Cc1cc(Cl)cc2c1NC(=O)[C@]21[C@@H]2C(=O)N(Cc3ccccc3)C(=O)[C@@H]2[C@@H]2CCCN21`, the IC50 [14] was > 100 µM (active).

In the case of `COc1cc(OC)c2nc(C)c3c(c2c1)N(c1ccc(O)cc1)CC3`, the AC50 [15] is reported as 9.09 µM (active), the EC50 [4] is reported as > 60 µM (not active) and the AC50 [11] is reported as 10 µM (inconclusive). For the same compound, the EC50 [16] was > 350 µM (not active), the EC50 [17] was > 350 µM (not active) and the EC50 [6] was 2.49 µM (active).

In the case of `Cc1ccc(C(=O)Nc2ccc3nccnc3c2)cc1`, the EC50 [18] is reported as 9.72 µM (active) and the AC50 [10] is reported as 35.5 µM (inconclusive).
